Laboratory results reported in US11872225B2, “Pyruvate kinase modulators and use thereof” (Agios Pharmaceuticals, Inc., priority 2017, dated 2024).

Target: PKM2 (Mus musculus, UniProt P52480)
Test: not given
Conditions: in vivo, LPS; cited from earlier work

Sequence of PKM2 (P52480 whole entry): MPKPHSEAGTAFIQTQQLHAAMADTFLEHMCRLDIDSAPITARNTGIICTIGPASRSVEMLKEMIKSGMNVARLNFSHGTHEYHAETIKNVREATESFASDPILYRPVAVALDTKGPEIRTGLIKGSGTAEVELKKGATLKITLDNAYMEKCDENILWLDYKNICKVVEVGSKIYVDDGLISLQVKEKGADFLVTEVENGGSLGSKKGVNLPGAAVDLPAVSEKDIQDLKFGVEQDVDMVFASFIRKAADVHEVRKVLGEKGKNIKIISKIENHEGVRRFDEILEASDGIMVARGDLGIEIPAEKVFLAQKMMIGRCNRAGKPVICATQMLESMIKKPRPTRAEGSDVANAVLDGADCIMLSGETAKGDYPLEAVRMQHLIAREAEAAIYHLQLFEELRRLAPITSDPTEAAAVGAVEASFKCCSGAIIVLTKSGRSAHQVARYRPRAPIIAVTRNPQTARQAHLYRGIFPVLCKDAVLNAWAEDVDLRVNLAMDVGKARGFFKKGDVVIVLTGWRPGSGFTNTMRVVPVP

| Compound | IL-1β production | production of IL-10 |
| --- | --- | --- |
| Cn1c2cc([S+](C)[O-])sc2c2cnn(Cc3cccc(N)c3)c(=O)c21 (stereo not shown) [TEPP-46] | inhibited LPS and IL-1β production | boosting production of IL-10 |

Target: wild type PKM2 (Homo sapiens, UniProt P14618)
Test: PKM2 Assay (LDH/NADH-coupled, absorbance at 340 nm)
Type: biochemical
Conditions: wild type PKM2 activation; 60 min preincubation at 25° C.; ADP 0.4 mM, PEP 0.11 mM; read-out: PKM2 WT AC50
Description: A compound described herein may be tested for its ability to activate PKM2. For simplicity, the activation activity of these compounds is represented as an AC50 in Table 2. In Tables 2, a compound described herein may have an AC50 of wild type PKM2.
PKM2 enzyme stock solution was diluted to prepare a 1.11× Reaction Mix (without ADP). 1 μL of test compound was first added to the wells followed by 40 μL of 1.11× Reaction Mix (without ADP) and incubated at room temperature (25° C.) for 60 min. The reaction was initiated with 10 μL ADP (0.4 mM final concentration), bringing the final Reaction Mix to 1×, and the reaction progress was measured as changes in absorbance at 340 nm wavelength at room temperature.
Test compound preparation: Test compounds were prepared at 50× final concentration in DMSO. 1 to 3 dilutions were made for 11 points (for example 50 μL of 5000 μM compound was added to 100 μL 100% DMSO to yield a 1667 μM, 50 μL of this added to 100 μL DMSO to yield 556 μM, and so forth). The compounds were added to the assay as a 1 to 50 dilution (1 μL in 50 μL) to yield a top concentration of 100 μM, decreasing 3-fold for 11 points.
Reaction Mix: PKM2 (5 ng/well, 0.1 μg/ml), ADP (0.4 mM), PEP (0.11 mM), NADH (180 μM), LDH (0.005 U/μL, Sigma #L3888), 1 mM DTT, 0.03% BSA in 1× Reaction Buffer
Reaction Buffer: 100 mM KCl, 50 mM Tris pH 7.5, 5 mM MgCl2.

Sequence of wild type PKM2 (P14618 whole entry): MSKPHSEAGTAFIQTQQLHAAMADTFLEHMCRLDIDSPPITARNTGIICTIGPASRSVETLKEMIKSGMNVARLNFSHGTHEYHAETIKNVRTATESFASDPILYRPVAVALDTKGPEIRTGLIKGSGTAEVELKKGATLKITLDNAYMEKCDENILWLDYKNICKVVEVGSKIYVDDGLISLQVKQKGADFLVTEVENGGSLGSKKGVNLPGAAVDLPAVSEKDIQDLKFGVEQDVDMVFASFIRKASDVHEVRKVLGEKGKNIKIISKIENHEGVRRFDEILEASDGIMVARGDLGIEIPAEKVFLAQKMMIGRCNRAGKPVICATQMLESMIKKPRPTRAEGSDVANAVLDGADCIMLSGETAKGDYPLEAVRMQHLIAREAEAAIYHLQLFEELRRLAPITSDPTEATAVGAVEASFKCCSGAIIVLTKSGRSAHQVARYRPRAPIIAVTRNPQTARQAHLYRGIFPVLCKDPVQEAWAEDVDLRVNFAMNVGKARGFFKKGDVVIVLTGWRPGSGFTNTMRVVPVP

| Compound | AC50 |
| --- | --- |
| CC(=O)NC(c1cc[nH]n1)c1nc2c(s1)c1cnn(Cc3cccc4[nH]ncc34)c(=O)c1n2C (stereo not shown) [Compound 62] | > 800 nM |
| Cc1nc2c(s1)c1cnn(Cc3ccc4[nH]c(=O)[nH]c4c3)c(=O)c1n2C [Compound 22] | > 800 nM |
| Cn1c2nc(Nc3ccccc3)sc2c2cnn(Cc3cccc4[nH]ncc34)c(=O)c21 [Compound 52] | > 800 nM |
| COC(=O)c1nc2c(s1)c1cnn(Cc3cccc(OC)c3)c(=O)c1n2C [Compound 13] | 301 to 800 nM |
| Cc1nc2c(s1)c1cnn(Cc3c[nH]cn3)c(=O)c1n2C [Compound 12] | > 800 nM |
| Cn1c2nc(Cn3ccnc3)sc2c2cnn(Cc3cccc4[nH]ncc34)c(=O)c21 [Compound 99] | < 300 nM |
| CC(=O)c1cccc(Cn2ncc3c4sc([S+](C)[O-])nc4n(C)c3c2=O)c1 (stereo not shown) [Compound 32] | < 300 nM |
| Cn1c2nc(Cc3cnn[nH]3)sc2c2cnn(Cc3cccc4[nH]ncc34)c(=O)c21 [Compound 86] | < 300 nM |
| Cn1c2nc(C(=O)c3cc[nH]n3)sc2c2cnn(Cc3cccc(N)n3)c(=O)c21 [Compound 123] | < 300 nM |
| Cn1c2nc(Cc3ccccn3)sc2c2cnn(Cc3nccs3)c(=O)c21 [Compound 91] | < 300 nM |
| Cc1nc2c(s1)c1cnn(Cc3cccc(C(=O)O)c3)c(=O)c1n2C [Compound 5] | > 800 nM |
| CSc1nc2c(s1)c1cnn(Cc3cccc(S(N)(=O)=O)c3)c(=O)c1n2C [Compound 41] | 301 to 800 nM |
| Cn1c2nc(Cc3ccncc3)sc2c2cnn(Cc3cccc4[nH]ncc34)c(=O)c21 [Compound 57] | > 800 nM |
| Cn1ccc(CCn2ncc3c4sc(Cc5cccnc5)nc4n(C)c3c2=O)n1 [Compound 137] | 301 to 800 nM |
| COc1ncc(Cc2nc3c(s2)c2cnn(Cc4cccc5[nH]ncc45)c(=O)c2n3C)cn1 [Compound 80] | < 300 nM |
| Cc1nc2c(s1)c1cnn(CCCO)c(=O)c1n2C [Compound 15] | > 800 nM |
| CC(=O)Nc1ccc(F)c(Cn2ncc3c4sc(Cc5cnn(C)c5)nc4n(C)c3c2=O)n1 [Compound 127] | 301 to 800 nM |
| COc1cccc(Cn2ncc3c4sc(S(=O)(=O)c5ccccc5)nc4n(C)c3c2=O)c1 [Compound 10] | < 300 nM |
| O=c1c2c(cnn1Cc1ccccc1)c1sc(Cc3ccccn3)nc1n2-c1ccccc1 [Compound 140] | > 800 nM |
| Cc1nc2c(s1)c1cnn(Cc3cccc4cn[nH]c34)c(=O)c1n2C [Compound 23] | 301 to 800 nM |
| Cn1c2nc(Cc3cc[nH]c(=O)c3)sc2c2cnn(Cc3cccc4[nH]ncc34)c(=O)c21 [Compound 76] | < 300 nM |
| Cn1cc(Cc2nc3c(s2)c2cnn(Cc4cccc(C(N)=O)c4)c(=O)c2n3C)cn1 [Compound 128] | < 300 nM |

| Compound | AC50 |
| --- | --- |
| CSc1nc2c(s1)c1cnn(Cc3cn4cccnc4n3)c(=O)c1n2C [Compound 40] | > 800 nM |
| Cn1c2nc(Cc3cnc(O)nc3)sc2c2cnn(Cc3cccc4[nH]ncc34)c(=O)c21 [Compound 81] | > 800 nM |
| Cc1nc2c(s1)c1cnn(Cc3cccc4c3cnn4C)c(=O)c1n2C [Compound 28] | < 300 nM |
| Cn1c2nc([S+](C)[O-])sc2c2cnn(Cc3ccc(C#N)cc3)c(=O)c21 (stereo not shown) [Compound 27] | 301 to 800 nM |
| Cn1c2nc(Cc3n[nH]cc3F)sc2c2cnn(Cc3n[nH]cc3OC(F)(F)F)c(=O)c21 [Compound 121] | 301 to 800 nM |
| Cn1c2nc([S+](C)[O-])sc2c2cnn(Cc3cccc4c3CCNC4)c(=O)c21 (stereo not shown) [Compound 30] | < 300 nM |
| Cn1ccc(Cn2ncc3c4sc(Cc5cccc(N)n5)nc4n(C)c3c2=O)n1 [Compound 109] | < 300 nM |
| C=CCn1ncc2c3sc(Cc4ccccn4)nc3n(C)c2c1=O [Compound 133] | > 800 nM |
| Cn1c2nc([S+](C)[O-])sc2c2cnn(Cc3ccnc(N)n3)c(=O)c21 (stereo not shown) [Compound 36] | 301 to 800 nM |
| Cn1c2nc(Cn3cncn3)sc2c2cnn(Cc3ccnc(N)n3)c(=O)c21 [Compound 143] | > 800 nM |
| C=Cc1nc2c(s1)c1cnn(Cc3cccc(OC)c3)c(=O)c1n2C [Compound 11] | < 300 nM |
| Cn1c2nc(SCc3ccccc3)sc2c2cnn(Cc3cccc4[nH]ncc34)c(=O)c21 [Compound 45] | 301 to 800 nM |
| COc1ccccc1Cn1ncc2c3sc(C)nc3n(C)c2c1=O [Compound 3] | 301 to 800 nM |
| Cn1c2nc([S+](C)[O-])sc2c2cnn(Cc3cnc(N)s3)c(=O)c21 (stereo not shown) [Compound 38] | < 300 nM |
| Cc1nc2c(s1)c1cnn(CCO)c(=O)c1n2C [Compound 25] | > 800 nM |
| Cc1nc2c(s1)c1cnn(CCOCCO)c(=O)c1n2C [Compound 20] | > 800 nM |
| Cn1c2nc(Cn3cncn3)sc2c2cnn(Cc3n[nH]c(=O)[nH]3)c(=O)c21 [Compound 145] | > 800 nM |
| Cn1c2nc(Cc3ccc(=O)[nH]c3)sc2c2cnn(Cc3cccc4[nH]ncc34)c(=O)c21 [Compound 60] | > 800 nM |
| Cn1c2nc([S+](C)[O-])sc2c2cnn(Cc3ccc(C(N)=O)cc3)c(=O)c21 (stereo not shown) [Compound 37] | > 800 nM |
| Cn1ccc(Cn2ncc3c4sc(CCc5cccnc5)nc4n(C)c3c2=O)n1 [Compound 141] | > 800 nM |
| Cn1c2nc(Cc3ccc(C#N)cc3)sc2c2cnn(Cc3cccc4[nH]ncc34)c(=O)c21 [Compound 33] | > 800 nM |

Now from value to molecule:

| AC50 | Compound |
| --- | --- |
| < 300 nM | Cn1c2nc(Cc3ccccn3)sc2c2cnn(Cc3cc[nH]n3)c(=O)c21 [Compound 92] |
| > 800 nM | Cn1cc(C(=O)O)c(Cn2ncc3c4sc(Cc5cc[nH]n5)nc4n(C)c3c2=O)n1 [Compound 117] |
| < 300 nM | Cn1c2nc(Cc3cc[nH]n3)sc2c2cnn(Cc3coc(C(N)=O)n3)c(=O)c21 [Compound 132] |
| < 300 nM | Cn1c2nc(Cc3cc[nH]n3)sc2c2cnn(Cc3c[nH]nn3)c(=O)c21 [Compound 89] |
| < 300 nM | Cn1c2nc(Cc3cc[nH]n3)sc2c2cnn(Cc3csc(C(N)=O)n3)c(=O)c21 [Compound 69] |
| < 300 nM | Cn1c2nc(Cc3cc[nH]n3)sc2c2cnn(Cc3nccc(N)n3)c(=O)c21 [Compound 135] |
| < 300 nM | Cc1cccc(Cn2ncc3c4sc(Cc5cc[nH]n5)nc4n(C)c3c2=O)n1 [Compound 73] |
| < 300 nM | Cn1c2nc(Cc3cccc(N)n3)sc2c2cnn(Cc3cc[nH]n3)c(=O)c21 [Compound 101] |
| < 300 nM | Cn1c2nc(Cc3cc[nH]n3)sc2c2cnn(Cc3csc(N)n3)c(=O)c21 [Compound 75] |
| < 300 nM | Cn1c2nc(Cc3cc[nH]n3)sc2c2cnn(Cc3nc(N)ccc3F)c(=O)c21 [Compound 107] |
| < 300 nM | Cn1c2nc(Cc3cc[nH]n3)sc2c2cnn(Cc3ccn[nH]3)c(=O)c21 [Compound 63] |
| < 300 nM | Cn1c2nc(Cc3cc[nH]n3)sc2c2cnn(Cc3cscn3)c(=O)c21 [Compound 87] |
| 301 to 800 nM | Cn1c2nc(Cc3cc[nH]n3)sc2c2cnn(Cc3n[nH]c(=O)[nH]3)c(=O)c21 [Compound 131] |
| < 300 nM | Cn1ccc(Cn2ncc3c4sc(Cc5cc[nH]n5)nc4n(C)c3c2=O)n1 [Compound 83] |
| < 300 nM | Cn1c2nc(Cc3cc[nH]n3)sc2c2cnn(Cc3ccccc3)c(=O)c21 [Compound 72] |
| < 300 nM | Cn1ccc(Cn2ncc3c4sc(Cc5n[nH]cc5F)nc4n(C)c3c2=O)n1 [Compound 113] |
| < 300 nM | Cn1ccc(Cn2ncc3c4sc(Cc5cscn5)nc4n(C)c3c2=O)n1 [Compound 96] |
| < 300 nM | Cn1c2nc(Cc3cc[nH]n3)sc2c2cnn(Cc3cccc4[nH]ncc34)c(=O)c21 [Compound 31] |
| < 300 nM | Cn1c2nc(Cc3c[nH]nn3)sc2c2cnn(Cc3cccc(N)n3)c(=O)c21 [Compound 104] |
| 301 to 800 nM | Cn1c2nc(Cc3cc[nH]n3)sc2c2cnn(Cc3ccc(C#N)cn3)c(=O)c21 [Compound 118] |
| < 300 nM | Cn1c2nc(Cc3cc[nH]n3)sc2c2cnn(CCc3cccc(N)n3)c(=O)c21 [Compound 126] |
| < 300 nM | Cn1c2nc(Cc3cc[nH]n3)sc2c2cnn(Cc3cncs3)c(=O)c21 [Compound 70] |
| > 800 nM | Cn1c2nc(Cc3c[nH]nn3)sc2c2cnn(Cc3ccccc3)c(=O)c21 [Compound 97] |
| < 300 nM | CC(=O)Nc1ccc(F)c(Cn2ncc3c4sc(Cc5cc[nH]n5)nc4n(C)c3c2=O)n1 [Compound 115] |
| < 300 nM | Cn1c2nc(Cc3cc[nH]n3)sc2c2cnn(Cc3csc(CO)n3)c(=O)c21 [Compound 68] |
| < 300 nM | Cn1c2nc(Cc3cc[nH]n3)sc2c2cnn(Cc3ccc4scnc4c3)c(=O)c21 [Compound 88] |
| 301 to 800 nM | Cn1cc(CN)c(Cn2ncc3c4sc(Cc5cc[nH]n5)nc4n(C)c3c2=O)n1 [Compound 124] |
| < 300 nM | Cn1nncc1Cn1ncc2c3sc(Cc4cc[nH]n4)nc3n(C)c2c1=O [Compound 108] |
